Consider two compounds from publication PMC12500691 (Frontiers in Cellular and Infection Microbiology, 2025).

One assay concerns SARS-CoV-2 proteins. In kind it is binding, SARS-CoV-2 (Wuhan variant).
Another assay has as its target SARS-CoV-2 ORF7a (Severe acute respiratory syndrome coronavirus 2, UniProt P0DTC7). The assay is described as follows: biochemical. Type of assay: binding, SARS-CoV-2 (Wuhan variant).

Chain of SARS-CoV-2 ORF7a (P0DTC7 16-96): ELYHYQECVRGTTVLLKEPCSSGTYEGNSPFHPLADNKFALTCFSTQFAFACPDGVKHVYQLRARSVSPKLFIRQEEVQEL

As for “synthetic control peptide: synthetic control peptide with an alpha-helical structure and a length of 29 amino acids, purchased from Biomatik (DKDGDLKTQIEKLWTEVNALKEIQALQTVCL)”, the “interaction with the SARS-CoV-2 proteins” value in the assay with SARS-CoV-2 proteins is “did not show an interaction with the SARS-CoV-2 proteins”. A word on the Kd: it is the free concentration of one partner at which half of the binding sites on the other are occupied at equilibrium, for simple one-to-one binding. In turn, `CC[C@H](C)[C@H](NC(=O)[C@H](CCCCN)NC(=O)[C@H](CCC(=O)O)NC(=O)[C@H](CCCCN)NC(=O)[C@H](CO)NC(=O)[C@H](CCCCN)NC(=O)[C@H](CCCNC(=N)N)NC(=O)[C@H](Cc1ccccc1)NC(=O)[C@H](Cc1ccccc1)NC(=O)[C@H](CC(=O)O)NC(=O)CNC(=O)[C@H](CC(C)C)NC(=O)[C@@H](N)CC(C)C)C(=O)NCC(=O)N[C@@H](CCCCN)C(=O)N[C@@H](CCC(=O)O)C(=O)N[C@@H](Cc1ccccc1)C(=O)N[C@@H](CCCCN)C(=O)N[C@@H](CCCNC(=N)N)C(=O)N[C@H](C(=O)N[C@H](C(=O)N[C@@H](CCC(N)=O)C(=O)N[C@@H](CCCNC(=N)N)C(=O)N[C@H](C(=O)N[C@@H](CCCCN)C(=O)N[C@@H](CC(=O)O)C(=O)N[C@@H](Cc1ccccc1)C(=O)N[C@@H](CC(C)C)C(=O)N[C@@H](CCCNC(=N)N)C(=O)N[C@@H](CC(N)=O)C(=O)N[C@@H](CC(C)C)C(=O)N[C@H](C(=O)N1CCC[C@H]1C(=O)N[C@@H](CCCNC(=N)N)C(=O)N[C@H](C(=O)N[C@@H](CCC(=O)O)C(=O)N[C@@H](CO)C(=O)O)[C@@H](C)O)C(C)C)[C@@H](C)CC)C(C)C)[C@@H](C)CC` [LL-37] registered a Kd on SARS-CoV-2 ORF7a of 140 ± 80 nM.
